Laboratory results published in ChEMBL document CHEMBL1127015, “Centrally acting serotonergic and dopaminergic agents. 1. Synthesis and structure-activity relationships of 2,3,3a,4,5,9b-hexahydro-1H-benz[e]indole derivatives” (J Med Chem, 1993).

Tests used:
D(2) dopamine receptor [1] = biological target: T1, D(2) dopamine receptor (Homo sapiens, UniProt P14416); test: Intrinsic activity from GTP shift using membranes from CHO cells transfected with mammalian dopamine receptor D2.; format: cell membranes
D(2) dopamine receptor [2] = biological target: T1, D(2) dopamine receptor; test: Binding affinity against [3H]U-86,170-labeled dopamine receptor D2 in cloned CHO cells; format: cell-based
D(2) dopamine receptor [3] = biological target: T2, D(2) dopamine receptor (Rattus norvegicus, UniProt P61169); test: Binding affinity against [3H]raclopride-labeled dopamine receptor D2 in rat striatum.; format: tissue-based
Mus musculus [4] = test: Antagonism of apomorphine effects for 0-10 minutes in reserpinized mice following 0.4 umol/kg i.p.; format: functional; set-up: unit not given beside the values
Mus musculus [5] = test: Antagonism of apomorphine effects in reserpinized mice following 0.4 umol/kg i.p.; format: functional
Mus musculus [6] = test: Ability to stimulate dopaminergic systems by effect on locomotor activity in reserpinized mice when a dose of 35 micro mol/kg is administered intraperitoneally; format: functional
Mus musculus [7] = test: Antagonism of apomorphine effects for 10-20 minutes in reserpinized mice following 0.4 umol/kg i.p.; format: functional
Mus musculus [8] = test: Maximum decrease in temperature when compound is administered subcutaneously; format: functional
Mus musculus [9] = test: Antagonism of apomorphine for 0-10 minutes in reserpinized mice when a dose of 35 micro mol/kg is administered intraperitoneally; format: functional
Mus musculus [10] = test: Antagonism of apomorphine in reserpinized mice when a dose of 3.5 micro mol/kg is administered intraperitoneally; format: functional
Mus musculus [11] = test: Antagonism of apomorphine in reserpinized mice when a dose of 35 micro mol/kg is administered intraperitoneally; format: functional
Mus musculus [12] = test: Antagonism of apomorphine for 0-10 minutes in reserpinized mice when a dose of 3.5 micro mol/kg is administered intraperitoneally; format: functional
Mus musculus [13] = test: Antagonism of apomorphine for 10-20 minutes in reserpinized mice when a dose of 3.5 micro mol/kg is administered intraperitoneally; format: functional
Mus musculus [14] = test: Increase in locomotor activity in reserpinized mice following 0.4 umol/kg i.p.; format: functional
Mus musculus [15] = test: Antagonism of apomorphine for 10-20 minutes in reserpinized mice when a dose of 35 micro mol/kg is administered intraperitoneally; format: functional
Mus musculus [16] = test: Effective dose on hypothermia in mouse when administered subcutaneously; format: functional; settings: sc
Mus musculus [17] = test: Ability to stimulate dopaminergic systems by effect on locomotor activity in reserpinized mice when a dose of 3.5 micro mol/kg is administered intraperitoneally; format: functional
Mus musculus [18] = test: Antagonism of apomorphine for 0-10 minutes in reserpinized mice when a dose of 38 micro mol/kg is administered intraperitoneally; format: functional
Mus musculus [19] = test: Ability to stimulate dopaminergic systems by effect on locomotor activity in reserpinized mice when a dose of 38 micro mol/kg is administered intraperitoneally; format: functional
Mus musculus [20] = test: Ability to stimulate dopaminergic systems by effect on locomotor activity in reserpinized mice when a dose of 3.8 micro mol/kg is administered intraperitoneally; format: functional
Mus musculus [21] = test: Antagonism of apomorphine in reserpinized mice when a dose of 3.8 micro mol/kg is administered intraperitoneally; format: functional
Mus musculus [22] = test: Antagonism of apomorphine in reserpinized mice when a dose of 38 micro mol/kg is administered intraperitoneally; format: functional
Mus musculus [23] = test: Antagonism of apomorphine for 10-20 minutes in reserpinized mice when a dose of 38 micro mol/kg is administered intraperitoneally; format: functional
Mus musculus [24] = test: Antagonism of apomorphine for 10-20 minutes in reserpinized mice when a dose of 3.8 micro mol/kg is administered intraperitoneally; format: functional
Mus musculus [25] = test: Antagonism of apomorphine for 0-10 minutes in reserpinized mice when a dose of 3.8 micro mol/kg is administered intraperitoneally; format: functional
D(2) dopamine receptor [26] = biological target: T2, D(2) dopamine receptor; test: Inhibitory concentration against [3H]raclopride-labeled dopamine receptor D2 in rat striatum; format: tissue-based
Mus musculus [27] = test: Effective dose on hypothermia in mouse when administered through peroral route; format: functional; settings: po
Mus musculus [28] = test: Maximum decrease in temperature when compound is administered through peroral route; format: functional
Rattus norvegicus [29] = test: Inhibition of firing rates of dopaminergic neurons in the substantia nigra pars compacta by intravenous injection in rats.; format: functional; settings: Rattus norvegicus, Substantia nigra pars compacta, iv; read-out: ED50
Mus musculus [30] = test: Time of effect in the face-to-face behavioral assay in the mouse when a dose of 0.0 micro mol/kg is administered perorally; format: functional
Mus musculus [31] = test: Ability to stimulate dopaminergic systems by effect on locomotor activity in reserpinized mice when a dose of 3.6 micro mol/kg is administered intraperitoneally; format: functional
Mus musculus [32] = test: Time of effect in the face-to-face behavioral assay in the mouse when a dose of 0.4 micro mol/kg is administered perorally; format: functional
Mus musculus [33] = test: Ability to stimulate dopaminergic systems by effect on locomotor activity in reserpinized mice when a dose of 36 micro mol/kg is administered intraperitoneally; format: functional
Mus musculus [34] = test: Antagonism of apomorphine for 10-20 minutes in reserpinized mice when a dose of 3.6 micro mol/kg is administered intraperitoneally; format: functional
Mus musculus [35] = test: Antagonism of apomorphine for 10-20 minutes in reserpinized mice when a dose of 36 micro mol/kg is administered intraperitoneally; format: functional
Mus musculus [36] = test: Time of effect in the face-to-face behavioral assay in the mouse when a dose of 3.6 micro mol/kg is administered perorally; format: functional
Mus musculus [37] = test: Time of effect in the isolation-induced aggression behavioral assay in the mouse when a dose of 36 micro mol/kg is administered perorally; format: functional
Mus musculus [38] = test: Antagonism of apomorphine for 0-10 minutes in reserpinized mice when a dose of 3.6 micro mol/kg is administered intraperitoneally; format: functional
Mus musculus [39] = test: Antagonism of apomorphine in reserpinized mice when a dose of 3.6 micro mol/kg is administered intraperitoneally; format: functional
Mus musculus [40] = test: Time of effect in the face-to-face behavioral assay in the mouse when a dose of 36 micro mol/kg is administered perorally; format: functional
Mus musculus [41] = test: Antagonism of apomorphine in reserpinized mice when a dose of 36 micro mol/kg is administered intraperitoneally; format: functional
Mus musculus [42] = test: Antagonism of apomorphine for 0-10 minutes in reserpinized mice when a dose of 36 micro mol/kg is administered intraperitoneally; format: functional
Mus musculus [43] = test: Time of effect in the isolation-induced aggression behavioral assay in the mouse when a dose of 0.0 micro mol/kg is administered perorally; format: functional
Rattus norvegicus [44] = test: Inhibition of firing rates of dopaminergic neurons in the substantia nigra pars compacta by intravenous injection in rats; format: functional
Rattus norvegicus [45] = test: Inhibition of firing rates of serotonergic neurons in the dorsal raphe nucleus by intravenous injection in rats; format: functional

T1 sequence (P14416 whole entry): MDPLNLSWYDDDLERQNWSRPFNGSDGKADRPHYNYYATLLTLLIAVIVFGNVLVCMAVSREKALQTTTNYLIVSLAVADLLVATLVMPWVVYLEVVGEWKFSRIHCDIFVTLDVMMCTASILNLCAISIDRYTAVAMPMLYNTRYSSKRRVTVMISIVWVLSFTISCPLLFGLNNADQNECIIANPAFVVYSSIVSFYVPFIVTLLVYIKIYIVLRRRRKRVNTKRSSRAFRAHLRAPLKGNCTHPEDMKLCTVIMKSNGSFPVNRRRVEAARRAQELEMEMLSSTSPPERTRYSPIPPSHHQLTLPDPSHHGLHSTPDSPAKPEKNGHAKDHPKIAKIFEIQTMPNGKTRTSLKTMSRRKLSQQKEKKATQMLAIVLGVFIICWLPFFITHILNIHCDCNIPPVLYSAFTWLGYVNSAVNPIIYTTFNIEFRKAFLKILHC
T2 sequence (P61169 whole entry): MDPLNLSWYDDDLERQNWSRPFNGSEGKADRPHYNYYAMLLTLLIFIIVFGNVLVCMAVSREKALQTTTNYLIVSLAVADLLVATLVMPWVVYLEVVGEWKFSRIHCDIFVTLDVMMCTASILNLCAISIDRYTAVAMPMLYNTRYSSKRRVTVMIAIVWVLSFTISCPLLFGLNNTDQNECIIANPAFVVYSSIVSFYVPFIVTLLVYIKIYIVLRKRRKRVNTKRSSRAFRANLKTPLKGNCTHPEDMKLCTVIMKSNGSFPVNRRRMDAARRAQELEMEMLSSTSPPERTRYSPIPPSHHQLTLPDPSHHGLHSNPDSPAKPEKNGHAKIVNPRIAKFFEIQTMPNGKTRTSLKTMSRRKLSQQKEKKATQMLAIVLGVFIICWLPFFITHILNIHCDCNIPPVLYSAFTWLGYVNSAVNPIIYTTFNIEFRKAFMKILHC

Work on `CCCN1CC[C@H]2c3cccc(O)c3CC[C@H]21` (racemic) yielded an Intrinsic activity (D(2) dopamine receptor [1]) of 1%, a Ki (D(2) dopamine receptor [2]) of 218 nM and a Ki (D(2) dopamine receptor [3]) of over 1000 nM.

In the case of `CCCN1CC[C@@H]2c3cccc(OC)c3CC[C@H]21` (racemic), the Intrinsic activity (D(2) dopamine receptor [1]) is reported as 0%, the Locomotor activity (Mus musculus [4]) is reported as 87 and the Locomotor activity (Mus musculus [5]) is reported as 188. For the same molecule, the Locomotor activity (Mus musculus [6]) was 27, the Locomotor activity (Mus musculus [7]) was 123 and the Max temperature decrease (Mus musculus [8]) was 3.9. It also gave a Locomotor activity (Mus musculus [9]) of 10, a Locomotor activity (Mus musculus [10]) of 122 and a Locomotor activity (Mus musculus [11]) of 53. The Locomotor activity (Mus musculus [12]) was 64, the Locomotor activity (Mus musculus [13]) was 98 and the Locomotor activity (Mus musculus [14]) was 1. The Locomotor activity (Mus musculus [15]) was 34, the ED50 (Mus musculus [16]) was 34 µmol/kg and the Locomotor activity (Mus musculus [17]) was 6.

Work on `C=CCN1CC[C@@H]2c3c(O)cccc3CC[C@H]21` (racemic) yielded an Intrinsic activity (D(2) dopamine receptor [1]) of 13%, a Locomotor activity (Mus musculus [4]) of 46 and a Locomotor activity (Mus musculus [5]) of 73. For the same molecule, the Locomotor activity (Mus musculus [7]) was 66, the Locomotor activity (Mus musculus [18]) was 49 and the Locomotor activity (Mus musculus [19]) was 1. For the same molecule, the Locomotor activity (Mus musculus [20]) was 5, the Locomotor activity (Mus musculus [21]) was 5 and the Ki (D(2) dopamine receptor [2]) was 25 nM. The Locomotor activity (Mus musculus [22]) was 9, the Locomotor activity (Mus musculus [23]) was 33 and the Locomotor activity (Mus musculus [24]) was 53. It also gave a Locomotor activity (Mus musculus [14]) of 26 and a Locomotor activity (Mus musculus [25]) of 71.

Molecule `C=CCN1CC[C@H]2c3cccc(O)c3CC[C@H]21` (racemic) has an Intrinsic activity (D(2) dopamine receptor [1]) of 29%, a Locomotor activity (Mus musculus [4]) of 101 and a Locomotor activity (Mus musculus [5]) of 130. For the same molecule, the Locomotor activity (Mus musculus [7]) was 111, the Locomotor activity (Mus musculus [18]) was 32 and the Locomotor activity (Mus musculus [19]) was 12. For the same molecule, the Locomotor activity (Mus musculus [20]) was 8, the Locomotor activity (Mus musculus [21]) was 111 and the Ki (D(2) dopamine receptor [2]) was 75 nM. The Locomotor activity (Mus musculus [22]) was 21, the Locomotor activity (Mus musculus [23]) was 52 and the Locomotor activity (Mus musculus [24]) was 111. It also gave a Ki (D(2) dopamine receptor [3]) of 198 nM, a Locomotor activity (Mus musculus [14]) of 0 and a Locomotor activity (Mus musculus [25]) of 88.

`CCCN1CCC2c3c(O)cccc3CCC21` (racemic) was tested, and the Max temperature decrease (Mus musculus [8]) was 8.8, the IC50 (D(2) dopamine receptor [26]) was over 1000 nM and the ED50 (Mus musculus [27]) was 154 µmol/kg. The Max temperature decrease (Mus musculus [28]) was 2.6 and the ED50 (Mus musculus [16]) was 2.1 µmol/kg.

Work on `C=CCN1CCC2c3cccc(O)c3CC[C@@H]21` (single isomer, unassigned; (+)) yielded an Intrinsic activity (D(2) dopamine receptor [1]) of 50%, an ED50 (Rattus norvegicus [29]) of 2.82 µmol/kg and a Locomotor activity (Mus musculus [4]) of 50. The Locomotor activity (Mus musculus [5]) was 79, the Locomotor activity (Mus musculus [7]) was 76 and the Locomotor activity (Mus musculus [18]) was 20. The Locomotor activity (Mus musculus [19]) was 17, the Locomotor activity (Mus musculus [20]) was 42 and the Locomotor activity (Mus musculus [21]) was 62. It also gave a Ki (D(2) dopamine receptor [2]) of 59 nM, a Locomotor activity (Mus musculus [22]) of 62 and a Locomotor activity (Mus musculus [23]) of 37. The Locomotor activity (Mus musculus [24]) was 90, the Ki (D(2) dopamine receptor [3]) was 259 nM and the Locomotor activity (Mus musculus [14]) was 11. For the same molecule, the Locomotor activity (Mus musculus [25]) was 54.

Work on `C=CCN1CCC2c3c(cccc3OC)CC[C@@H]21` (single isomer, unassigned; (+)) yielded an Intrinsic activity (D(2) dopamine receptor [1]) of 17%, a Time (Mus musculus [30]) of 0.8 s and a Locomotor activity (Mus musculus [31]) of 12. It also gave a Time (Mus musculus [32]) of 0.9 s, a Locomotor activity (Mus musculus [4]) of 83 and a Locomotor activity (Mus musculus [5]) of 103. The Locomotor activity (Mus musculus [33]) was 18, the Locomotor activity (Mus musculus [7]) was 92 and the Locomotor activity (Mus musculus [34]) was 77. For the same molecule, the Locomotor activity (Mus musculus [35]) was 67, the Time (Mus musculus [36]) was 0.6 s and the Max temperature decrease (Mus musculus [8]) was 3.9. It also gave a Time (Mus musculus [37]) of 21 s, a Locomotor activity (Mus musculus [38]) of 73 and a Locomotor activity (Mus musculus [39]) of 114. The Time (Mus musculus [40]) was 1 s, the Locomotor activity (Mus musculus [41]) was 115 and the Locomotor activity (Mus musculus [42]) was 54. The Locomotor activity (Mus musculus [14]) was 8, the Time (Mus musculus [43]) was 27 s and the ED50 (Mus musculus [16]) was 62 µmol/kg.

`CCCN(CCC)C1CCc2cccc(O)c2C1` (centres undefined) [8-OH-DPAT] was tested, and the ED50 (Rattus norvegicus [44]) was 2.25 µmol/kg, the ED50 (Rattus norvegicus [45]) was 0.005 µmol/kg and the Ki (D(2) dopamine receptor [3]) was over 1000 nM.

Work on `CN1CCc2cccc3c2[C@H]1Cc1ccc(O)c(O)c1-3` [APOMORPHINE] yielded an ED50 (Rattus norvegicus [29]) of 0.03 µmol/kg.

In the case of `CN(C)CCCN1c2ccccc2Sc2ccc(Cl)cc21` [CHLORPROMAZINE], the Intrinsic activity (D(2) dopamine receptor [1]) is reported as 5%.
